Assay results as given in patent US12708620B2, “Prodrugs and medical uses thereof” (priority 2018, dated 2026).
Like-named read-outs stand apart in the source and are kept apart here.

What was measured:
SW1990 = assay: in vitro cell culture sensitivity in anoxic conditions; format: cell-based, human
SW1990 tumor xenograft = assay: pancreatic cancer xenograft model; format: in vivo, BALB/c Nude Mice; conditions: 600 mg/kg IP, hypoxic status absent, methanesulfonate
[1] = preliminary toxicology study, intravenous administration; format: in vivo, rat
Protocol: Preliminary toxicology studies of the intravenous administration of Cpd.11 Ms in rats and dogs according to a dosing regimen consisting of 3 consecutive days of administration in a 3 weekly cycle (QDx3/cycle) have shown that potential haematological toxicity in tissues such as the bone marrow, the thymus and lymph nodes (known to have hypoxic niches) can be minimized at dosages at or below 400 mg/kg in the rat and at or below 100 mg/kg in the dog. As such, these levels correspond to 2360 mg/m^2 and 2000 mg/m^2, respectively, in human subjects. […] Alternative dosing regimens also include weekly administration for up to 3 or 4 consecutive times of each 3 or 4 weekly cycle. In addition, also an initial dose of QDx3 or QDx5 could be combined with less frequent administration schedules that may still allow a therapeutic effect over tumor growth and development, such as up to 3 or 4 weekly dosages in 3 to 4 weekly cycles, or once a month (or every three-four weeks) schedules that be applied with or without the parallel treatment with the appropriate standard-of-care protocols.

HCC1937 = assay: resazurin-based potency assay, normoxia vs anoxia; format: cell-based, human; conditions: for IC50: Homo sapiens, 4 h exposure then 96 h
Protocol: (§1) The IC50 values were obtained using the resazurin-based potency assay under anoxic (<0.01% O2) and/or normoxic conditions (21% O2). The hypoxia cytotoxicity ratio (HCR) is calculated as the ratio of IC50 value […] (HCR=IC50 normoxia/IC50 anoxia).
(§2) For anoxic condition, the complete medium for each cell line (25 ml in a T25 or 80 ml in a T80) was equilibrated in the anoxic chamber 48 h before use to allow an as large as possible interchange between media and atmosphere, agitating the flask once a day and just before use. The 96-well plates for cell seeding and the 96-well plates for preparation of a mother plate containing the compound to be tested (e.g. Cpd.11 Ms) at appropriate concentrations as well as disposable reagent reservoirs and pipet tips that are required for cell seeding under anoxic conditions were placed in anoxia at least 72 h before use. The mother plate for treatment of the cells under anoxia was prepared with anoxic medium and in anoxia pre-incubated plastics, the mother plate for treatment of the cells in normoxia was prepared with normoxic medium in a standard cell culture hood.
(§3) Cell seeding was performed starting from a cell suspension (70% confluent flasks of cells). Appropriate cell numbers/volumes were used at the pre-determined cell density (typically 100 μl/well) as determined by performing a growth curve experiment were calculated. For anoxic conditions, the appropriate number of cells was transferred to the anoxic chamber and diluted to the appropriate cell concentration in anoxic complete medium. The cells were allowed to adhere for 2 hours in the anoxic chamber at 37° C. In normoxic conditions, usual cell seeding and complete medium protocols were used (in a volume of 100 μl/well in 96-well plates). The cells were allowed to adhere for 2 hours at 37° C. in a regular cell culture CO2 incubator. In both conditions, the remaining empty wells in 96-well plates were filled with 200 μl anoxic or normoxic medium to prevent evaporation.
(§4) Fresh Cpd.11 Ms stock solution was thawed just before the experiment and shielded from the light. A 96-well microtiter plate was filled with 176.4 μl of complete normoxic (RT) or anoxic medium in the first column and 120 μl of complete normoxic or anoxic medium with 2% DMSO for the other columns of wells. 3.6 μl per well of the compound stock solution (Cpd.11, Cpd.11 Ms, Cpd.11c, or Cpd.11d; 150 mM) was added to the first column. The solution of the first column was pipetted up and down and 60 μl was transferred to the second column to perform 1/3 serial dilutions pipetting up and down 3 times between each transfer. This was repeated until the 11th column. No Cpd.11 Ms was added to the 12th column. The plate was prepared no longer than 30 minutes before use and protected from direct light exposure. Two hours after seeding the cells, 100 μl of the mother plate was added to each well and plates remained for 4 h in the anoxic chamber or in cell culture incubator at 37° C. After 4 h, the plate in the anoxic chamber was transferred to normoxia. Visual inspection of all plates (few random wells per plate) under microscope was performed and medium was removed from all plates by aspiration. Cells were washed once with 200 μl PBS (RT) and 200 μl of fresh normoxic complete medium (RT) was added to each well (including all wells without cells). All plates were incubated for 96 hours in normoxia at 37° C. in a standard cell culture incubator.
(§5) For the cell viability assay, the resazurin final working solution was prepared freshly by diluting the resazurin stock solution (0.1 mg/ml) 1/10 in complete medium (RT) of the respective cell lines to obtain a final concentration of 0.01 mg/ml resazurin. After 96 hours incubation in normoxia, a visual inspection of all the plates (few random wells per plate) was performed under the microscope and the medium in each well was removed by aspiration. […]

MDA-MB-231 = assay: resazurin-based potency assay, normoxia vs anoxia; format: cell-based, human; conditions: for IC50: Homo sapiens, 4 h exposure then 96 h
Protocol: as §1, §2, §3, §4, §5

BT-474 = assay: resazurin-based potency assay, normoxia vs anoxia; format: cell-based, human; conditions: for IC50: Homo sapiens, 4 h exposure then 96 h
Protocol: as §1, §2, §3, §4, §5

NCI-H1650 = assay: resazurin-based potency assay, normoxia vs anoxia; format: cell-based, human; conditions: for IC50: Homo sapiens, 4 h exposure then 96 h
Protocol: as §1, §2, §3, §4, §5

DMS114 = assay: resazurin-based potency assay, normoxia vs anoxia; format: cell-based, human; conditions: for IC50: Homo sapiens, 4 h exposure then 96 h
Protocol: as §1, §2, §3, §4, §5

PANC-1 = assay: resazurin-based potency assay, normoxia vs anoxia; format: cell-based, human; conditions: for IC50: Homo sapiens, 4 h exposure then 96 h
Protocol: as §1, §2, §3, §4, §5

NCI-H1975 = assay: resazurin-based potency assay, normoxia vs anoxia; format: cell-based, human; conditions: for IC50: Homo sapiens, 4 h exposure then 96 h
Protocol: as §1, §2, §3, §4, §5

BxPC-3 = assay: resazurin-based potency assay, normoxia vs anoxia; format: cell-based, human; conditions: for IC50: Homo sapiens, 4 h exposure then 96 h
Protocol: as §1, §2, §3, §4, §5

[2] = anoxia (<0.01% O2), read-out: IC50 Average for Cpd.11Ms ANX (SD)
[3] = normoxia (21% O2), read-out: IC50 Average for Cpd.11Ms NRX (SD)

CCN1CCN(C(=O)c2cc(N(CCBr)CCOS(C)(=O)=O)c(S(C)(=O)=O)cc2[N+](=O)[O-])CC1.CS(=O)(=O)O [Cpd.11 Ms, 4-(5-((2-bromoethyl) (2-((methylsulfonyl)oxy)ethyl)amino)-4-(methylsulfonyl)-2-nitrobenzoyl)-1-ethylpiperazin-1-ium methanesulfonate]
sensitivity in anoxic conditions in vitro (SW1990): highly Cpd.11 Ms-sensitive | Anti-tumor effect (SW1990 tumor xenograft; listed as Cpd.11Ms): No impact | Anti-tumor effect (SW1990 tumor xenograft): not observed | corresponding level in human subjects of the rat dosage ([1]; from 400 mg/kg in the rat): 2360 mg/m^2 | dosage at which potential haematological toxicity (bone marrow, thymus, lymph nodes) can be minimized ([1]; rat, intravenous, QDx3 in a 3 weekly cycle): ≤ 400 mg/kg | Average of HCR (SD) (HCC1937; HCR=IC50 normoxia/IC50 anoxia): 28.8 (8.3) | IC50 (HCC1937; [2]): 53.1 µM | IC50 (HCC1937; [3]): 1450 µM | Average of HCR (SD) (MDA-MB-231; HCR=IC50 normoxia/IC50 anoxia): 10.4 (3.0) | IC50 (MDA-MB-231; [2]): 121 µM | IC50 (MDA-MB-231; [3]): 1250 µM | Average of HCR (SD) (BT-474; HCR=IC50 normoxia/IC50 anoxia): 102.6 (15.2) | IC50 (BT-474; [2]): 14.8 µM | IC50 (BT-474; [3]): > 1500 µM | Average of HCR (SD) (NCI-H1650; HCR=IC50 normoxia/IC50 anoxia): 28.2 (5.4) | IC50 (NCI-H1650; [2]): 45.1 µM | IC50 (NCI-H1650; [3]): 1250 µM | Average of HCR (SD) (DMS114; HCR=IC50 normoxia/IC50 anoxia): 96.3 (26.2) | IC50 (DMS114; DMS-114, anoxia (<0.01% O2), read-out: IC50 Average for Cpd.11Ms ANX (SD)): 6.2 µM | IC50 (DMS114; DMS-114, normoxia (21% O2), read-out: IC50 Average for Cpd.11Ms NRX (SD)): 564 µM | Average of HCR (SD) (PANC-1; HCR=IC50 normoxia/IC50 anoxia): 24.0 (1.0) | IC50 (PANC-1; [2]): 43.6 µM | IC50 (PANC-1; [3]): 1040 µM | Average of HCR (SD) (NCI-H1975; HCR=IC50 normoxia/IC50 anoxia): 52.6 (36.4) | IC50 (NCI-H1975; [2]): 28.7 µM | IC50 (NCI-H1975; [3]): 1140 µM | Average of HCR (SD) (BxPC-3; HCR=IC50 normoxia/IC50 anoxia): 22.7 (4.2) | IC50 (BxPC-3; [2]): 68.2 µM | IC50 (BxPC-3; [3]): > 1500 µM
